The values below come from patent US12332198B2, “Metabolite based diagnostics for periprosthetic joint infection” (priority 2022, dated 2025).

SMILES strings stand for the structures. Where “and” joins values, the source holds several entries; their conditions need not be identical. Equal values may be shown once. Entries after “also recorded” stand apart in the source; their conditions may differ.

The subject of one series is P. aeruginosa PAO1. In words: Microtiter plate assay: planktonic growth (OD600) and crystal violet staining of biofilm (OD590). Format: cell-based, Pseudomonas aeruginosa. As to the method: Cadaverine (Sigma Aldrich) 5- or 10-mM stocks were prepared in LB and sterile filtered with a […] filter. […] […] Outer edge wells were filled with PBS to avoid “edge effects” due to evaporation. OD600 was measured to quantify planktonic growth. Liquid media was gently aspirated, and wells were washed three times with 150 μL PBS. Adhered biofilm was stained with 125 μL of 0.1% crystal violet (CV) in 20% ethanol in ddH2O (v/v) for 30 min. CV was gently aspirated, wells were washed five times with 150 μL PBS, and CV was solubilized with 150 μL 33% glacial acetic acid in ddH2O (v/v) by shaking gently at 100 rpm at room temperature for 25 min. CV was quantified at OD590 to report biofilm accumulation. LB blanks were averaged and subtracted from readings. Control PAO1 wells were averaged, and all measurements were normalized to control measurements per plate and reported as percent change from control.

For series [1], the system named is P. aeruginosa PAO1 biofilm. In words: Confocal laser scanning microscopy (CLSM) of biofilm accumulation. Format: cell-based, Pseudomonas aeruginosa. Particulars: 3.30 mM cadaverine, 24 hrs, SYTO 9, n=5. Here is the method: PAO1 overnight cultures were diluted to OD600=0.17 in LB with 0 or 3.30 mM cadaverine in 35×10 mm confocal dishes and incubated statically at 37° C. in 5% CO2 for 24 hrs. Liquid media was aspirated and adhered biofilm was stained with SYTO 9 for 10 min and washed with PBS. CLSM stitched images were collected (n=5) with a laser power of 4.5% under 10× magnification using an Olympus FluoView FV10i CLSM. Mean gray scale value and surface area coverage were quantified using Fiji.

Another series deals with PAO1 Td-tomato or Xen41. In words: Culture imaging by photo, dissecting microscope and IVIS (biofilm morphology). Particulars: 3.30 mM cadaverine. It counts as cell-based, Pseudomonas aeruginosa. Here is the method:
PAO1 Td-tomato or Xen41 cultures were grown similarly to CLSM cultures described above. iPhone 8 images were taken in a controlled well-lit environment. The air-liquid interface was imaged using an Amscope dissecting microscope with an MU500 camera. Xen41 light emission was detected with an IVIS Lumina II system (Caliper LifeSciences) as an indicator of biofilm activity.

The next series concerns rats. Particulars: 2,000 mg/kg body weight in rats; cited from earlier work.
For another series, the system named is HT29 intestinal cells. Particulars: up to 70 mM in HT29 intestinal cells; cited from earlier work.
A further series concerns P. aeruginosa. Particulars: previous studies; cited from earlier work.
Where [2] appears, read: PAO1 Td-tomato, cadaverine 24 hrs.
[3] abbreviates: pre-formed biofilm: grown 24 hrs, then cadaverine for additional 24 hrs.

`NCCCCCN` [Cadaverine]: the “bactericidal or bacteriostatic effect” value with P. aeruginosa PAO1 (OD600, 0-3.30 mM cadaverine) is reported as “not bactericidal; also recorded: did not have a bactericidal or bacteriostatic effect”. In addition, in the series with P. aeruginosa PAO1 (setting [2]), the “biofilm accumulation decrease (crystal violet OD590), percent change from control” value worked out at 37% and the “planktonic growth increase (OD600), percent change from control” value is recorded as 4%. Moreover, the “planktonic growth increase (OD600), percent change from control” value in the series on P. aeruginosa PAO1 (WT PAO1, 0-3.30 mM cadaverine from initiation, 24 hrs, maximal (3.30 mM)) is 20.5±4.2% and 21%. Moreover, in the series on P. aeruginosa PAO1 (WT PAO1, 25 μM cadaverine, 24 hrs), the “biofilm accumulation (crystal violet OD590) at low concentration” value is “increased marginally”. Besides, in the series with P. aeruginosa PAO1 (setting [3]), the “biofilm accumulation decrease (crystal violet OD590), percent change from control” value was 39.8±2.5% and 40%; the “planktonic growth increase (OD600), percent change from control” value is 5.8±1.8% and 6%. For the same molecule, in series [1], the “reduction in biofilm accumulation by mean grayscale value” was 54.5±26.0% and 55%; the “reduction in biofilm accumulation by surface area coverage” value was 79.8±55.1% and 80%. Also, in the series on PAO1 Td-tomato or Xen41 (24 hrs, standing liquid culture, PAO1 Td-tomato), the biofilm morphology result is “more aggregate-like, in a pellicle”. Further, the “metabolic state of pellicle biofilm (IVIS luminescence)” value in the series on PAO1 Td-tomato or Xen41 (PAO1 Xen41, air-liquid interface) is recorded as “metabolically active”. Moreover, in the series with rats, the acute oral toxicity entry is “low acute oral toxicity”. In the series on HT29 intestinal cells, the cytotoxicity result is listed as “negligible cytotoxicity”. For the same molecule, the “effect on effectiveness of β-lactams” value in the series on P. aeruginosa is on record as “enhances the effectiveness of many β-lactams”.
